# Reference: US7553929B2, “Cell permeable peptides for inhibition of inflammatory reactions and methods of use” (Vanderbilt University, priority 1994, dated 2009)
# Where two headings read alike, the source gives them in different places. Bridges are numbered along the chain shown (N, C = ends). Where no end group is shown, it is not given here.
# Assays:
# NIH 3T3 cells [1] = experiment: Indirect immunofluorescence assay of peptide import into NIH 3T3 cells; format: cell-based
# Text: A 26-residue peptide (referred to as SM, listed herein as SEQ ID NO:1) that contained the predicted signal sequence of Kaposi fibroblast growth factor ^16-17 (K-FGF) was chemically synthesized. An indirect immunofluorescence assay using antibody against epitope tag-containing SM peptide was employed to follow translocation of the SM peptide to the intracellular compartments of NIH 3T3 cells. A polyclonal anti-SM peptide antibody against the SM peptide-keyhole limpet haemocyanin conjugate (Pierce) was raised in rabbits and reacted with SM peptide in ELISA (titer>1:30,000). The intracellular SM peptide was detected by an indirect imrnmunofluorescence assay using affinity-purified anti-SM peptide IgG and rhodamine-labeled anti-rabbit antibody (Kirkegaard & Perry). Briefly, confluent NIH 373 cells on the chamber slides (Nunc) were treated with either 0.5 ml SM peptide solution (100 μg ml^−1) in DMEM containing 10% FBS or with 0.5 ml DMEM containing 10% FBS only for 30 minutes at 37° C. The cells were fixed with 3.5% paraformaldehyde solution in PBS followed by 0.25% Triton X-100 in PBS and then treated with 1:20 anti-SM peptide IgG in PBS containing 0.5% bovine serum albumin (BSA) for 1.5 h. The intracellular SM peptide-antibody complexes were visualized by subsequent incubation with a rhodamine-labeled anti-rabbit polyclonal antibody for 1 h. In control systems, anti-SM peptide antibody was preabsorbed with the SM peptide. Intracellular localization of the SAα peptide was detected by immunofluorescence assay using affinity-purified anti-SM peptide IgG as described above for SM peptide. […] A ten-step z-position sectional scanning of the SM peptide-treated cells by the confocal laser scanning microscopy (CLSM) affirmed that these deposits were intracellular. […] Likewise, cells not exposed to SM peptide or cells exposed to SM peptide followed by the secondary antibody alone were negative. If cells were fixed with paraformaldehyde before peptide treatment, the cellular import of SM peptide was prevented.
# To determine the rate of SM peptide import across cell membranes, a kinetic experiment was carried out with the SM peptide-treated NIH 3T3 cells. NIH 3T3 cells were treated at 37° C. with 0.5 ml SM peptide at 100 μg mL^−1 in DMEM containing 10% FBS for 1, 5, 15, 30, 60 and 120 minutes. Intracellular SM peptide deposits were detected by indirect immunofluorescence assay as described above. […] The 30-minute time point was therefore selected to determine the optimal peptide concentrations for detectable import.
# To determine the optimal peptide concentration, NIH 3T3 cells were treated for 30 minutes at 37° C. with 0.5 ml SM peptide solution in DMEM containing 10% FBS at the following concentrations: 0, 2, 10, 50, 100, and 150 μg ml^−1. Intracellular localization of the SM peptide was detected by indirect immunofluorescence assay as described above. […] The cellular import was concentration-dependent and reached a plateau between 50 μg/ml and 100 μg/ml.
# Transport of the SM peptide across the cell membrane was temperature-dependent. […] Accordingly, cellular import of the SM peptide resumed when the incubation temperature shifted from 4° C. to 37° C.
# The intracellular SA peptide could not be tracked by an immunofluorescence assay because it was not recognized by the available anti-SM peptide antibody. However, attaching two extra amino acid residues (Met-Pro) to the carboxyl terminus of the SA peptide produced a modified SA peptide (referred to as SAα, listed herein as SEQ ID NO:4) that contained a 3-amino acid epitope tag, Leu-Met-Pro, recognized by anti-SM peptide antibody in ELISA. […] Like SA peptide, SAα peptide was mitogenic in the thymidine incorporation assay.
# NIH 3T3 cells [2] = experiment: [3H]thymidine incorporation (mitogenic response) of NIH 3T3 cells; format: cell-based; conditions: comparable concentration ranges
# Experimental: A 26-residue hybrid peptide (referred to as SA, listed herein as SEQ ID NO:3) was designed and synthesized. […] Thus, the SA peptide differs from the SM peptide only in its 7-residue carboxyl terminal “cargo” region. A functional assay was performed in which SA peptide was able to induce a mitogenic response of NIH 3T3 cells measured by [^3H]thymidine incorporation in a manner similar to aFGF bearing, the same NLS. ^18
# In this functional assay, confluent 3T3 cells grown initially in DMEM containing 10% FBS were transferred to a low serum medium (DMEM containing 0.5% FBS) for 2 days. The test peptides, either SA peptide, SAα pep-tide, ANL peptide, or SM peptide, or aFGF, were added to a fresh low serum medium at the indicated concentrations at 37° C. After 16 hours, [^3H]thymidine was added and 4 hours later, the cells were washed with PBS, treated with trichloroacetic acid, solubilized with 0.15 M NaOH, and the radioactivity was determined in a liquid scintillation counter.
# (§1) Bars represent the mean±S.E.M. of at least three independent experiments done in triplicate and calculated as multiplicity of counts in the tested sample over the control sample. SA peptide within the concentration range used (0 to 46 μM) was not cytotoxic as determined by staining with fluorescein diacetate/ethidium bromide. ^20
# NIH 3T3 cells [3] = experiment: Import of 125I-labeled peptide into NIH 3T3 cells (cell-associated radioactivity; ATP depletion, protease treatment); format: cell-based; conditions: for Counts in cells: 15 ng, 30 min; for Counts in cell lysates / Counts in supernatants: 5 min
# Text: Intracellular localization of the membrane-permeable peptide was also shown by treatment of cells with proteases following peptide import. For this experiment, 41-residue peptide (referred to as SEP and listed herein as SEQ ID NO:6) that contained the same hydrophobic sequence as SM peptide followed by the sequence of K-FGF(129-153) was designed and synthesized. The latter was present in KP peptide not containing hydrophobic sequence that served as the control for the membrane-permeable SKP peptide. […] The intracellular ^125I-SKP peptide was resistant to the action of proteases.
# Both SKP and KP peptides were radiolabeled with ^125I by the lodogen method (Pierce). The specific activities of both peptides were similar (2.5×10^4 cpm/ng). NIH 3T3 cells were subcultured on a 60-mm dish and incubated at 37° C. for 3 days. The confluent monolayers (1.6×10^6 cells) on each dish were then washed twice with PBS and treated with 15 ng of ^125I-SKP or ^125I-KP peptide at 37° C., for the indicated time. The cells were washed eight times with PBS and twice with 2 M NaCl buffer (pH 7.5) until no radioactivity could be detected in the washings. The washed cells were lysed in lysis buffer (10 mM Tris-HCl, pH 7.0, 0.1 mM EDTA, 1 mM phenylmethylsulphony fluoride, 1 mM dithiothreitol, and 1% Triton X-100) and the radioactivity in the cell lysates was counted in a Packard auto-gamma counter. In some experiments, the washed cells were further treated with pronase (1 mg/ml) or trypsin (0.05%) solution in DMEM for 5 min at 37° C. The supernatants and cells were separated and their radioactivities were counted separately. For ATP depletion assay, cells were incubated with 5 μglml antimycin, 6.5 mM 2-deoxyglucose, and 10 mM glucono-δ-lactone in DMEM for 2 h at 37° C. before addition of ^125I-SKP peptide. The levels of ATP in ATP-depleted cells and normal cells were determined by ATP bioluminescent assay kit (Sigma).
# For ATP depletion assay, confluent NIH 3T3 cells (1.6×10^6 cells) in each dish were treated with or without ATP depleting reagents (antimycin, 2deoxyglucose, and glucono-δ-lactone) for 2 h at 37° C. Cells were then treated with 15 ng of ^125I-SKP peptide for 30 min at 37° C. After complete removal of extracellular^125I-labeled peptides, the radioactivity in the cell lysates was counted. For the assay using proteases, cells were treated with ^125 I-SKP peptide and washed as described above. The ^125I-SKF peptide-associated cells were then treated with pronase (1 mg/ml), trypsin (0.05%), or diluent for 5 min at 37° C. The radio-activities in the cell lysates and supernatants were counted separately. Data in Table 1 represent the mean the mean ±SEM of triplicate determinations of a single experiment. The experiment was repeated three times with similar results.
# NF-κB [4] = format: cell-based, murine; conditions: J774, LPS 10 ng/ml, peptide 31 μM (Example II)
# rabbits = experiment: Localized Shwartzman reaction (LPS-induced skin inflammatory reaction) in rabbits; format: in vivo, rabbit; conditions: intradermal application prior to the second LPS injection
# [5] = system: rodent endothelial cell line (LE-II); experiment: Indirect immunofluorescence assay of peptide import, LE-II cells; format: cell-based
# NF-κB complex = conditions: for Inducible nuclear import of NF-κB, LPS / Inducible nuclear import of NF-κB, TNFα: LEII
# [6] = system: human umbilical vein endothelial cells; experiment: Indirect immunofluorescence assay of SM peptide import, HUVEC; format: cell-based
# [7] = system: baby hamster kidney-21 cells; experiment: Indirect immunofluorescence assay of SM peptide import, baby hamster kidney-21 cells; format: cell-based
# NIH 3T3 cells [8] = experiment: Cytotoxicity by staining with fluorescein diacetate/ethidium bromide; format: cell-based; conditions: 0 to 46 μM
# Experimental: as §1
# NF-κB [9] = format: cell-based
substance,measurement,setting,value
SAα peptide: SA peptide with two extra residues (Met-Pro) at the carboxyl terminus (AAVALLPAVLLALLAPAAANYKKPKLMP; 1..16 Note/label = a (“Signal peptide amino acid sequence of K-FGF”)),Intracellular peptide staining with anti-SM peptide antibody,NIH 3T3 cells [1]; SAα-treated NIH 3T3 cells,punctate staining pattern
same,Mitogenic activity in thymidine incorporation assay,NIH 3T3 cells [2],mitogenic
"SKP peptide: 41-residue peptide: same hydrophobic sequence as SM peptide followed by K-FGF(129-153); tested 125I-radiolabeled (AAVALLPAVLLALLAPEILLPNNYNAYESYKYPGMFIALSK; also: 125I radiolabel, site not given here)",Radioactivity detected in peptide-treated cells,"NIH 3T3 cells [3]; 15 ng 125I-peptide, 37° C.",Substantial radioactivity was detected
same,Counts in cells,"NIH 3T3 cells [3]; ATP-depleted cells, 37° C.","22,266 ± 3,602 cpm/1.6 × −10′ cells"
same,Counts in cell lysates,"NIH 3T3 cells [3]; no protease (diluent), 37° C.","21,323 ± 853"
same,Counts in supernatants,"NIH 3T3 cells [3]; no protease (diluent), 37° C.","2,966 ± 838"
same,Counts in cell lysates,"NIH 3T3 cells [3]; pronase 1 mg/ml, 37° C.","21,791 ± 1,953"
same,Counts in supernatants,"NIH 3T3 cells [3]; pronase 1 mg/ml, 37° C.","1,979 ± 75"
same,Loss of cell-associated radioactivity after protease treatment,NIH 3T3 cells [3]; pronase or trypsin,no significant loss of cell-associated radioactivity was observed
same,Counts in supernatants,"NIH 3T3 cells [3]; trypsin 0.05%, 37° C.",655 ± 70
same,Counts in cells,"NIH 3T3 cells [3]; untreated (ATP-positive) cells, 37° C.","20,189 ± 2,109 cpm/1.6 × −10′ cells"
SN50 peptide: 26-residue peptide: K-FGF signal sequence (residues 1-16) and NLS of NF-kB p50 subunit (residues 17-26) (AAVALLPAVLLALLAPVNRKRNKLMP),Nuclear import of NF-κB induced by LPS,NF-κB [4],blocked
same,Localized skin inflammatory reaction (Evans' Blue area),rabbits,greatly diminished area of blue discoloration
same,Intracellular distribution compared to intracellular SM peptide,[5],more nuclear staining pattern
same,"Inducible nuclear import of NF-κB, LPS",NF-κB complex; LPS 10 ng/ml (Example II),inhibited
same,"Inducible nuclear import of NF-κB, LPS",NF-κB complex; LPS 10 ng/ml (Example III),inhibited
same,"Inducible nuclear import of NF-κB, TNFα",NF-κB complex; TNFα 20 U/ml (Example III),inhibited
same,"Inducible nuclear import of NF-κB, TNFα",NF-κB complex; TNFα 100 U/ml (Example II),inhibited
"SM peptide: 26-residue peptide: K-FGF signal sequence, spacer, epitope tag; mutated, loss-of-function NLS; cell-permeable control (AAVALLPAVLLALLAPAAADQNQLMP; 1..16 Note/label = a (“Signal peptide amino acid sequence of K-FGF”))",Intracellular localization by indirect immunofluorescence,[6],the same results as with NIH 3T3 cells
same,Intracellular localization by indirect immunofluorescence,[7],the same results as with NIH 3T3 cells
same,Intracellular localization by indirect immunofluorescence,[5],the same results as with NIH 3T3 cells
same,Time at which intracellular staining plateaued,"NIH 3T3 cells [1]; 100 μg/mL, 37° C.",about 30 minutes
same,Time at which intracellular staining was first observed,"NIH 3T3 cells [1]; 100 μg/mL, 37° C.",≤ 5 min
same,Immunofluorescence staining at 4° C.,"NIH 3T3 cells [1]; 100 μg/ml, 30 minutes, 4° C.",No immunofluorescence staining was observed
same,Immunofluorescence staining at 22° C. or 37° C.,"NIH 3T3 cells [1]; 100 μg/ml, 30 minutes, 22° C. or 37° C.",numerous punctate deposits
same,Intracellular peptide deposits by indirect immunofluorescence,"NIH 3T3 cells [1]; 100 μg/ml, 30 minutes, 37° C.",intracellular deposits were observed in almost all cells
same,Concentration giving detectable intracellular peptide,"NIH 3T3 cells [1]; 30 minutes, 37° C.",2 µg/mL
same,Concentration giving detectable intracellular peptide (molar),"NIH 3T3 cells [1]; 30 minutes, 37° C.",about 800 nM
same,Cellular import in cells fixed with paraformaldehyde before peptide treatment,NIH 3T3 cells [1]; cells fixed before treatment,prevented
same,Mitogenic activity in thymidine incorporation assay,NIH 3T3 cells [2],Neither control peptide showed any significant mitogenic activity
AAVALLPAVLLALLAPAAANYKKPKL [SA peptide],Cytotoxicity,NIH 3T3 cells [8],not cytotoxic
"Asn-Tyr-Lys-Lys-Pro-Lys-Leu (NYKKPKL) (1..7 Note/label = a (“Nuclear localization sequence of aFGF”)) [ANL peptide, 7-residue peptide representing the NLS of aFGF, reference compound]",Mitogenic activity in thymidine incorporation assay,NIH 3T3 cells [2],Neither control peptide showed any significant mitogenic activity
cSN50 peptide: cyclic peptide designed by inserting two cysteines flanking the NLS motif of SN50 (AAVALALLPAVLLALLAPCYVQRKRQKLMPC; disulfide 19-31 (inferred)),SEB-induced NF-κB nuclear import,NF-κB [9],increasing inhibition of SEB-induced NF-κB nuclear import
same,Potency relative to the prototypical SN50 peptide (phosphoimager analysis),NF-κB complex; cSN50 versus SN50,3-10 times
